For experiment [1], the system named is A549 cells. The experiment can be described thus: FAS-induced apoptosis (activating anti-FAS antibody CH-11) in A549 cells, ISEL / nuclear fragmentation. To be noted: for inhibition of Fas-induced apoptosis of A549 cells: lisinopril 500 ng/ml. It is filed as cell-based, human. Here is the method: Cell Culture. […] Cells were seeded on 12 mm sterile glass cover slips in 24-well chambers at a density of 20,000 cells per well.
Fluorescence Detection of Apoptosis. […] J. Physiol. […] In these assays detached cells were retained by centrifugation of the 24-well culture vessels during fixation with 70% ethanol. In situ end-labeling of fragmented DNA (ISEL) was conducted as described in Gorczyka et al., Canc. Res. 53:1945-1951 (1993). Briefly, ethanol was removed by rinsing cover slips in distilled water for at least 10 minutes. […] The sections were rinsed thoroughly five times with Buffer A and three additional times in 0.5 M PBS. Incorporated bio-UTP was detected by incubation for one hour at 37° C. with avidin-rhodamine; the cover slips were then rinsed in distilled water three times and mounted under Fluoromount Solution (Southern Biotechnology Associates, Birmingham, Ala.).
Spontaneous or stimulated apoptosis was quantitated as described in Uhal et al., Am. J. Physiol. 269:L819-L828 (1995), in the human lung epithelial cell line A549 by fluorescence detection of chromatin condensation and nuclear fragmentation. The human lung epithelial cell line A549 was cultured on glass cover slips as described in Uhal, et al., Am. J. Physiol. 269:L819-L828 (1995). At the end of the test period, detached cells were retained by centrifuging the culture vessel during fixation of cells in 70% ethanol. Fixed cells were incubated for 30 minutes with 5 ug/ml propidium iodide (PI) in PBS containing DNAse-free RNAse; under these conditions, red fluorescence (>570 nm) is specific for DNA. As in Uhal et al., Am. J. Physiol. 269:L819-L828 (1995), apoptotic cells were identified by the presence of discrete nuclear fragments containing condensed chromatin. Human lung A549 cells were cultured for 20 h in the presence of equivalent concentrations (500 ng/ml) of monoclonal antibody CH-11 (FAS mAb), purified IgM fraction of nonimmune mouse immunoglobulins (IgM), monoclonal antibody 5F-7 (mAb2), and monoclonal antibody 5F-9 (mAb3). Apoptotic cells were scored by the nuclear morphology assay discussed above. A significant difference (p<0.01 compared to control (no additives)), was observed between the means±S.E.M. (at least 4 determinations per condition) of the cells exposed to FAS mAb as compared to the control or other antibody treatments as determined by ANOVA and Dunnett's test. […] J. Physiol.
Ethanol-fixed A549 cells on glass cover slips were subjected to ISEL labeling of fragmented DNA. DNA fragments labeled with biotinylated UTP were detected with rhodamine-conjugated avidin. A549 cells were exposed to either 500 ng/ml anti-FAS antibody (CH-11) under the same conditions as described above or in the presence of 50 ng/ml captopril. […] ISEL-positive A549 cells were quantitated in at least four separate culture vessels exposed to the anti-FAS antibody CH-11 at 500 ng/ml and/or 50 ng/ml captopril.
A549 cells were exposed to anti-FAS antibody CH-11 as described above, in the presence of 0.005 ng/ml (5 pg/ml) to 50 ng/ml captopril. Inhibition of apoptosis was detected as the decrease in ISEL-positive cells, scored as described above. […] Inhibition of apoptosis was maximal (approximately 85-90%) at 50 ng/ml captopril, a concentration known to be physiologically attainable in humans and to be maximally inhibitory for ACE. See Duchin et al., Clin. Pharmacokinet. 14:241-259 (1988).
Cell Culture and Detection of Apoptosis. […] Ibarra-Sunga, C. Gidea, E. Ang, S. Deshmukh, G. Chaudhary, J. Baraboutis, G. Filippatos and B. D. Uhal, Angiotensin II induces apoptosis in human and rat alveolar epithelial cells. Am. J. Physiol. 276:L885-L889 (1999)). […] J. Physiol. […] As in the above Examples, the induction of apoptosis was verified by Annexin V binding and generation of DNA strand breaks […]

The subject of experiment [2] is A549 cells. The note with it: for inhibition of amiodarone-induced apoptosis: captopril 500 ng/ml, saralasin 50 ug/ml, Losartan 5 pg/ml. On the procedure:
(§1) The human lung adenocarcinoma cell line A549 (ATCC) was cultured in Ham's F12 medium supplemented with 10% fetal bovine serum (FBS). Primary alveolar epithelial cells were isolated from adult male Wistar rats. The primary cells were studied at day two of culture, a time at which they are type II cell-like by accepted morphologic and biochemical criteria. […] All cells were seeded in 24-well or 6-well chambers, and all experiments were conducted at subconfluent densities of 80-90% in serum-free Ham's F12 medium. Test reagents were diluted with Ham's F12 medium and were applied for 20 hours at 37C. in a 5% CO2 incubator.
(§2) Apoptotic cells were detected using propidium iodide (PI) following digestion of ethanol-fixed cells with DNAse-free RNAse in PBS containing 5 ug/ml PI. […] In replicate culture vessels, necrosis was detected as the loss of exclusion of PI after application of the vital dye directly to the cell culture medium at 5 ug/ml final concentration. Red fluorescent (PI-POSITIVE) cells (>570 nm) were scored over the subsequent hour as a percentage of the total cells in any given field. A minimum of 4 separate fields were scored in each of three separate culture vessels per experiment condition; all experiments were performed at least twice and the data were compiled. Although all necrotic cells are PI-positive, some apoptotic cells may also take up the dye but these comprise a minor fraction of the total dead cell population.
(§3) In all assays, detached cells were retained by centrifugation of the culture vessel at 300×g for 10 minutes with a centrifuge rotor designed for culture plates. For detection of necrosis (dye exclusion of PI), the PI was added directly to the cell culture medium immediately before centrifugation of the culture vessel. For detection of apoptosis, ethanol was added directly to the cell culture medium to a final concentration of 70% immediately before the centrifugation. Afterward, the ethanol was carefully removed and the total cell population (attached plus sedimented detached cells) were stained with PI as described above.

Experiment [3] concerns primary rat AEC. The note with it: for inhibition of amiodarone-induced apoptosis: captopril 500 ng/ml, saralasin 50 ug/ml, Losartan 5 pg/ml, amiodarone 2.5 ug/ml for chelerythrine, orthovanadate. Here is the method: as §1, §2, §3
Experiment [4] deals with primary rat AEC. The experiment can be described thus: Amiodarone-induced net cell loss in primary rat AEC cultures. The note with it: primary rat AEC. In kind it is cell-based.
Method: Primary alveolar epithelial cells were isolated from adult male Wistar rats. The primary cells were studied at day two of culture, a time at which they are type II cell-like by accepted morphologic and biochemical criteria. All primary cell preparations were of better than 90% purity assessed by acridine orange staining. All cells were seeded in 24-well or 6-well chambers, and all experiments were conducted at subconfluent densities of 80-90% in serum-free Ham's F12 medium. Test reagents were diluted with Ham's F12 medium and were applied for 20 hours at 37C. in a 5% CO2 incubator.
Importantly, unattached cells were recovered and included in the analyses, and thus the data represent true loss of cells rather than simple detachment from the substratum.

≈ marks a conversion by molar mass, not a printed value. Entries after “also recorded” stand apart in the source; their conditions may differ. Where a SMILES comes first, the peptide text is derived from it. The star is where a group is joined. Cbz = O=C(OCc1ccccc1)*; CH2F = FC*

One may read the inhibition as the change of the read-out against control, counted positive when it falls. What is called IC50 is the midpoint of a concentration-inhibition curve.

Take `NCCCC[C@H](N[C@@H](CCc1ccccc1)C(=O)O)C(=O)N1CCC[C@H]1C(=O)O` [lisinopril]: in the experiment on A549 cells [1] (Homo sapiens, A549 or primary rat AEC, lisinopril 0.5 μg/ml, saralasin 5 μg/ml, read-out: maximal inhibition of apoptosis in response to either Fas activator), the inhibition at 0.5 µg/mL was determined as 82%. In the experiment with A549 cells [1], the “inhibition of Fas-induced apoptosis of A549 cells” value (“inhibition … of A549 cells” for short) is given as “significantly inhibited”.

For the compound `COc1ccc2c(c1OCc1ccccc1)C[C@@H](C(=O)O)N(C(=O)C(c1ccccc1)c1ccccc1)C2` [PD126055], the “inhibition … of A549 cells” value with A549 cells [1] is on record as “unable to significantly inhibit”.

Turning to `CNCC(=O)N[C@@H](CCCN=C(N)N)C(=O)N[C@H](C(=O)N[C@@H](Cc1ccc(O)cc1)C(=O)N[C@H](C(=O)N[C@@H](Cc1cnc[nH]1)C(=O)N1CCC[C@H]1C(=O)N[C@@H](C)C(=O)O)C(C)C)C(C)C` [saralasin], the “inhibition of amiodarone-induced apoptosis” value with A549 cells [2] and in the experiment on primary rat AEC [3] was “inhibited” in each case. Further, in the experiment with A549 cells [1] (cell type not given), the “inhibition of AEC apoptosis in response to Fas” value is reported as 93%. Also, the “effect on amiodarone-induced decrease in total cell number” value (“effect on amiodarone-induced decrease” for short) in the experiment on primary rat AEC [4] is on record as “significantly inhibited”.

With `COC(=O)C[C@H](NC(=O)[C@H](C)NC(=O)[C@@H](NC(=O)OCc1ccccc1)C(C)C)C(=O)CF` [ZVAD-fmk, N-benzylcarboxy-Val-Ala-Asp-[O-Me]-CH2F] (Cbz-Val-Ala-Asp(OMe)-CH2F), the “inhibition of apoptosis in response to amiodarone” value in the experiment on A549 cells [2] (A549) is given as 81%. For the same compound, the “inhibition of apoptosis in response to amiodarone” value with primary rat AEC [3] (primary rat AEC) turned out to be 97%. In the experiment with primary rat AEC [4], the “effect on amiodarone-induced decrease” value is listed as “significantly inhibited” and the “net cell loss abrogated” value amounted to 75%.

As to `CCc1nc2c(C)cc(C)nc2n1Cc1ccc(-c2ccccc2-c2nn[nH]n2)cc1` [L158809], the “inhibition … of A549 cells” value with A549 cells [1] was “could block”.

Take `C[C@H](CS)C(=O)N1CCC[C@H]1C(=O)O` [captopril]: the “inhibition of amiodarone-induced apoptosis” value with A549 cells [2] and with primary rat AEC [3] was “inhibited” each time. Further, the “effect on FAS-induced apoptotic indexes (morphology, DNA fragmentation, ISEL-positive cells)” value in the experiment with A549 cells [1] (50 ng/ml captopril with anti-FAS CH-11 500 ng/ml) is given as “completely abrogated; also recorded: essentially abolished”. Further, in the experiment with A549 cells [1] (Homo sapiens, A549, 20 h, read-out: IC50 of inhibition of FAS-induced apoptosis (ISEL labeling)), the IC50 was 0.07 ng/mL (≈ 0.322 nM). In addition, the inhibition at 0.05 µg/mL in the experiment with A549 cells [1] (Homo sapiens, A549, read-out: maximal inhibition of apoptosis (decrease in ISEL-positive cells)) lay within 85 to 90%. In addition, the “concentration at which inhibition of FAS-induced ISEL labeling was measurable” value in the experiment with A549 cells [1] (anti-FAS CH-11) came out at 5 pg/mL. In the experiment with A549 cells [1] (captopril alone), the “effect on basal ISEL labeling” value is listed as “no significant effect”. Further, the “effect on amiodarone-induced decrease” value in the experiment on primary rat AEC [4] was “significantly inhibited”.
